Results published in patent US9718794B2, “Crystalline forms of tyrosine kinase inhibitors and their salts” (Purdue Pharma L.P., priority 2013, dated 2017).

Legend:
[1] = biological target: T1, TrkA (human full length) (Homo sapiens, UniProt P04629); test: PathHunter whole cell functional assay, NGF stimulated TrkA activation (U2OS); type: cell-based; conditions: U2OS PathHunter cells, mean of triplicate; read-out: cellular IC50, NGF stimulated TrkA activation
T1 construct: expressed recombinantly on the intracellular C-terminus of TrkA (human full length); host or cells: U2OS
Text: Compound inhibition in a live, whole cell based functional assay: There are several methods to measure whole length TrkA activation stimulated by its natural ligand or agonist NGF in live cells. For example, the PathHunter Profiling services offered by DiscoveRx (Fremont, Calif.). The PathHunter technology is an adaptation of enzyme fragment complementation that provides a novel, generic functional cell-based assay format for detecting protein-protein interaction. In this cell-based assay approach, with U2OS cell background, a small peptide epitope (PK) is expressed recombinantly on the intracellular C-terminus of TrkA (human full length). This is co-expressed with a larger sequence, termed enzyme acceptor (EA) that is attached to a cytoplasmic protein SHC1 which will interact with TrkA intracellularly. NGF induced activation of TrkA receptor causes either homo- or hetero-dimerization of TrkA resulting in cross-phosphorylation. The SHC1-EA fusion protein then binds the phosphorylated TrkA receptor forcing complementation of the PK and EA fragment. This interaction generates an active beta-galactosidase enzyme, which is detected using a chemiluminescent substrate.

[2] = Rat pharmacokinetics (IV and PO, plasma); type: in vivo; conditions: male, CD IGS, PO 100 mg/kg, mean
Description: Rat Pharmacokinetics. Compound I was dosed to nonfasted male CD IGS rats (weighting 180-250 g, Charles River Laboratories) by single intravenous (IV, n=3/group) or oral gavage (PO, n=4/group, including control rat group for drug-free blood and brain collection) administration at a nominal dose levels of 3 mg/kg (IV) or 5 mg/kg (IV) and 10, 50, 100 mg/kg (PO) respectively. Compound was formulated in either DMSO/Solutol® HS 15/phosphate buffered saline, pH 7.4 (PBS) for both IV and PO dosing, or 10% (w/v) Povidone K12 in water for IV dosing or 10% (w/v) Povidone K25 in water for PO dosing, or 18% (w/v) CrosPovidone in water for PO dosing. An intravenous profile was obtained by taking serial or terminal blood samples at 3, 10, 30, 60, 120, 240, 360, 1440 min post dose. An oral profile was obtained by taking serial or terminal blood samples at 10, 30, 60, 120, 240, 360, 480, 1440 min post dose.
Plasma Sample Collection from Rats. Animals were sedated under general inhalant anesthesia (3% isoflurane) for blood collection by cardiac puncture. […]
Plasma and brain samples were subjected to quantitative analysis by LC-MS/MS using compound-specific mass transitions. […] The concentrations of the test compound in brain (ng/g brain tissue) and in plasma (ng/mL) as well as the ratio of the brain concentration and the plasma concentration at each time point were determined and reported.

[3] = system: CFA-induced inflammatory pain; test: Rat CFA-induced inflammatory pain model; type: in vivo; conditions: 50 μL of 1 mM s.c. into the paw 3 hours after CFA
Description: Rat CFA-induced Inflammatory Pain Model. Hyperalgesia was induced by subcutaneously injecting 50 μL of CFA (Sigma-Aldrich, St. Louis, Mo., USA) into the plantar surface of the left hind paw of the rats using a 30-gauge hypodermic needle under sevoflurane anesthesia. The classical signs of inflammation, including edema and redness, for up the last day of tests were recorded. To assess the effect of test article on CFA-induced inflammatory pain, the rats were anesthetized with sevoflurane 3 hours after CFA injection and then injected 50 μL of either 1 mM test article (n=6) or Saline (n=4) subcutaneously (S.C.) into the same site as the CFA injection, using a 30-gauge hypodermic needle under sevoflurane anesthesia, according to published method (Ueda K., et al, J Pharmacol. Sci., 2010; 112(4):438-43). Paw withdrawal latencies (thermal hyperalgesia) are measured before and at […] 2, 4, and 7 days after CFA injection. Mechanical thresholds were also measured in the same way with either Formula 1 compound (n=6) or Saline (n=4) at similar different time points (for example, 1, 3 hour and 3 days). The noxious heat and mechanical thresholds were separately measured in each group of rats. The threshold was measured 3-5 times in each rat and then averaged.

[4] = system: CCI neuropathic pain (mechanical allodynia); test: Chronic constriction injury (CCI) model of neuropathic pain in rat; type: in vivo; conditions: for observed side effects in dosed CCI-rats: single oral dose
Text: Chronic Constriction Injury (CCI) Model of Neuropathic Pain in Rat. The CCI model is one of the most commonly used mono-neuropathic pain model firstly described in details by Bennett and Xie (Bennett CJ, Xie YK. Pain. 1988;33(1):87-107). It mimics important clinical chronic pain symptoms such as mechanical allodynia and thermal hyperalgesia, Chronic constriction injury of the sciatic nerve was produced by tying four loose ligatures around the left sciatic nerve according to the method of Bennett and. Xie. […] Calibrated von Frey filaments were used to determine the lowest mechanical (tactile) threshold required to evoke a brisk paw withdrawal reflex in the rat hindpaws. Rats were allowed to acclimatize in wire mesh cages for 15-20 min prior to von Frey testing. Assessment of paw withdrawal thresholds (PWTs) using von Frey filaments was undertaken prior to CCI-surgery (pre-surgery baseline on day 0). Before the drug dosing on day 14, the pre-dose baseline was recorded for each rat. […] Drug-naïve CCI-rats (n=4 - 6 per group) were used. The oral (PO) gavage vehicle was either 10% (w/v) Povidone K25 in water for PO dosing, or 18% (w/v) CrosPovidone in water for PO dosing, or 0.5% CMC-Na/0.1% Tween 80in distilled water for PO dosing. The positive control gabapentin was dissolved in the vehicle and orally given at 100 mg/kg (by oral gavage). Test article was dissolved or suspended in the vehicle and orally given at 25, 50, 100 and 150 mg/kg. Each CCI-rat was administered a single oral dose of test article, gabapentin or vehicle control, 2 hours before assessment of PWT.

[5] = system: SNL neuropathic pain (mechanical allodynia); test: Spinal nerve ligation (SNL) mono-neuropathic pain model in rat; type: in vivo; conditions: SNL rats, oral administration
Description: Spinal Nerve Ligation (SNL) Mono-Neuropathic Pain Model in Rat. The surgical procedure will be performed according to the method firstly described by Kim and Chung (Kim SH, Chung JM. Pain. 1992;50(3):355-63.). This procedure will result in tactile allodynia in the left hindpaw. […] The dose-reverse anti-allodynia effects of test compound: on day 14 after surgery, rats were treated with test article at one of four doses, vehicle or positive control by oral gavage, and PWT was determined by calibrated von Frey filaments at time points of 0 (right before the drug dosing, Pre-Dose Baseline), 0.5, 1, 2, 4 and 6 hr. The anti-allodynia effects of repeated administration of test article: Administration of test article was started on day 7 after surgery, once a day for 7 days. PWT was determined by calibrated von Frey filaments, 2 hour after test article dosing each day. After 7 days dosing, the measurement were continued, every other day without compound dosing for another 7 days. PWT was determined at the time points as given above.

[6] = Accelerated stability test (XRPD and Raman); type: physicochemical; conditions: 1 week
Description: X-ray Powder Diffraction (XRPD). Approximately 2 mg of sample was gently compressed on the XRPD zero back ground single obliquely cut silica sample holder. The sample was then loaded into a D/MAX 2200 X-ray powder diffractometer (Rigaku) or a Philips X-Pert MPD diffractometer and analyzed using the following experimental conditions (Tube anode: Cu; Generator tension: 40 kV; Tube current: 40 mA; Wavelength alphal: 1.54056 Å; Wavelength alpha2: 1.5444 Å; Start angle [2 theta]: 5; End angle [2 theta]: 50; and Continuous scan). For suspected novel forms a slightly slower scan speed was used over a range of 4-40°2θ.
Raman spectroscopy. Samples were analyzed by a Nicolet Almega XR Dispersive Raman Microscope for its Raman spectrum using the following conditions (Exposure Time: 1.0 s; Acquisition No: 10; Pinhole Size: 25, 50 or 100 μm; Wavelength range: 2000˜300 cm^−1 (single grating); Laser: He-Ne 780 nm 100% power; Objective: 20×/0.40 or 50×/0.75 (magnifier/numerical aperture number)). Then the measured Raman spectra were corrected by baseline subtraction using the software OMNIC™v7.3.

T1 sequence (P04629 33-796): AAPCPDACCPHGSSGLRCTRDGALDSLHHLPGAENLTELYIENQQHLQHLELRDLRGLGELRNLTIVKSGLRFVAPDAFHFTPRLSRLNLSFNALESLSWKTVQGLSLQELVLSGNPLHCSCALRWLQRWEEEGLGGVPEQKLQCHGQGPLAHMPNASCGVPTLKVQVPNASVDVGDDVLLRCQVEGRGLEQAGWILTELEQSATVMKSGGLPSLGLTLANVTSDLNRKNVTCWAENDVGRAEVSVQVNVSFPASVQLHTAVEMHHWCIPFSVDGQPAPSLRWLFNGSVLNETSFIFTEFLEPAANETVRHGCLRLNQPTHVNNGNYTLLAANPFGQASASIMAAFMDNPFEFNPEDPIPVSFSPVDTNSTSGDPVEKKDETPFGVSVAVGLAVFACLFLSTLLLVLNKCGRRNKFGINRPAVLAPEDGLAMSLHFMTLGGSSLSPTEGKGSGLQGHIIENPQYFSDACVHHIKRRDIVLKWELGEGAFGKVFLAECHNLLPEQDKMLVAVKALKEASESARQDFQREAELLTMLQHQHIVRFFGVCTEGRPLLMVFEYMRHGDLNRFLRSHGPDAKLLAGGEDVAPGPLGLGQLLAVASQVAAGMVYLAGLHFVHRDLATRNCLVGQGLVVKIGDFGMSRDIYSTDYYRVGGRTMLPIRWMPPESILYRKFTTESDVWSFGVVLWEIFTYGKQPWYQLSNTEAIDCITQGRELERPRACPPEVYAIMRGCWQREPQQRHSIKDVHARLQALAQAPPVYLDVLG

O=C(O)c1ccc(Nc2cc(N3CCN(C4CCCCC4)CC3)c3noc4c3c2C(=O)c2ccccc2-4)cc1 [Compound C]
IC50 [1]: ~0.05 µM

O=C([O-])c1ccc(Nc2cc(N3CCN(C4CCCCC4)CC3)c3noc4c3c2C(=O)c2ccccc2-4)cc1.[Na+] [Compound I, Sodium 4-((3-(4-cyclohexylpiperazin-1-yl)-6-oxo-6H-anthra[1,9-cd]isoxazol-5-yl)amino)benzoate]
bioavailability [2]: ~100% | analgesic effect (FIG. 1) [3]: efficacious in relieving the pain | effect on mechanical allodynia (FIG. 2) ([4]; CCI rats, single oral dose 25, 50, 100 and 150 mg/kg, PWT 2 hours after dosing): significantly reduced mechanical allodynia | observed side effects in dosed CCI-rats [4]: no such effect or other abnormality was observed | effect on mechanical allodynia [5]: significantly reduced mechanical allodynia | stability by XRPD and Raman ([6]; 40° C./75% RH): no instability | stability by XRPD and Raman ([6]; 80° C.): no instability

NCC1(CC(=O)O)CCCCC1 [gabapentin, reference compound]
observed side effects in dosed CCI-rats [4]: drowsiness or motor incoordination
